Values joined by “and” are separate entries in the source; they are usually repeats but may differ in a detail not shown here. Equal values may be shown once.
Test system: Alpha smooth muscle actin (α-SMA) levels
Experiment: α-SMA levels by Western blot in TGF-β-treated normal human lung fibroblasts (headed Cell Proliferation Assay)
Assay type: cell-based
Details: 10 ng/mL TGF-β, 24 h; for Relative α-SMA 5 μM / Relative α-SMA 20 μM: Table 4; for Relative α-SMA 5 μM: compound 5 μM; for Relative α-SMA 20 μM: compound 20 μM
Procedure: Normal human lung fibroblasts were plated in a 6-well plate at 100,000 cells per well in 1 mL of DMEM supplemented with 10% FBS. The cells were incubated overnight at 37° C. under 5% CO2. The next day, the cells were serum starved (medium was removed and 1 mL of fresh DMEM without serum was added). The cells were incubated overnight.
The cells were treated with a test compound in DMEM, 5% FBS in the presence of 10 ng/mL TGF-β and incubated for 24 h. The cells were lysed with an M-PER buffer. Alpha smooth muscle actin (α-SMA) levels were determined by Western blot and normalized to 0-tubulin levels using cell signaling antibodies. Blots were probed with secondary antibodies from LI-COR® Biosciences and read using a scanner from LI-COR® Biosciences. Quantification was also done using a software from LI-COR® Biosciences. The results are shown in Tables 1 to 4 below, where the control (Ctrl) is the fibroblasts in the absence of TGF-β and a test compound.

[1] = single agent 5 μM, TGF-β alone = 1 (Tables 1-3)
[2] = single agent 10 μM, TGF-β alone = 1
[3] = single agent 20 μM, TGF-β alone = 1 (Tables 1-3)

SMILES | Relative α-SMA 5 μM | Relative α-SMA 20 μM | further results
Cc1cc(NS(=O)(=O)c2c(C(C)C)cc(C(C)C)cc2C(C)C)cc(C(F)(F)F)c1 [A1, 2,4,6-Triisopropyl-N-(3-methyl-5-(trifluoromethyl)phenyl)benzenesulfonamide] | 0.98 | 0.37 | 
COC(=O)c1cc(NS(=O)(=O)c2c(C(C)C)cc(C(C)C)cc2C(C)C)cc(C(F)(F)F)c1 [A2, Methyl 3-(trifluoromethyl)-5-((2,4,6-triisopropylphenyl)sulfonamido)benzoate] | 1.05 | 0.23 | 
CC(C)c1cc(C(C)C)c(S(=O)(=O)Nc2cc(C(=O)O)cc(C(F)(F)F)c2)c(C(C)C)c1 [A3, 3-(Trifluoromethyl)-5-((2,4,6-triisopropylphenyl)sulfonamido)benzoic acid] | 0.79 | 0.73 | 
CCCCNC(=O)c1cc(NS(=O)(=O)c2c(C(C)C)cc(C(C)C)cc2C(C)C)cc(C(F)(F)F)c1 [A4, N-Butyl-3-(trifluoromethyl)-5-((2,4,6-triisopropylphenyl)sulfonamido)benzamide] | 1.30 | 0.46 | 
CC(C)c1cc(C(C)C)c(S(=O)(=O)Nc2cc(NC(=O)OC(C)(C)C)cc(C(F)(F)F)c2)c(C(C)C)c1 [A5, Tert-butyl (3-(trifluoromethyl)-5-((2,4,6-triisopropylphenyl)sulfonamido)-phenyl)carbamate] | 0.95 | 0.21 | 
CC(C)c1cc(C(C)C)c(S(=O)(=O)Nc2cc(N)cc(C(F)(F)F)c2)c(C(C)C)c1 [A6, N-(3-Amino-5-(trifluoromethyl)phenyl)-2,4,6-triisopropylbenzenesulfonamide] | 1.08 | 0.05 | 
CC(=O)Nc1cc(NS(=O)(=O)c2c(C(C)C)cc(C(C)C)cc2C(C)C)cc(C(F)(F)F)c1 [A7, N-(3-(Trifluoromethyl)-5-((2,4,6-triisopropylphenyl)sulfonamido)phenyl)-acetamide] | 1.60 | 0.33 | 
CCN(CC)c1cc(NS(=O)(=O)c2c(C(C)C)cc(C(C)C)cc2C(C)C)cc(C(F)(F)F)c1 [A8, N-(3-(Diethylamino)-5-(trifluoromethyl)phenyl)-2,4,6-triisopropylbenzenesulfonamide] | 0.88 | 0.33 | 
Cc1cc(C(C)(C)C)cc(C)c1S(=O)(=O)Nc1cc(OCCCC#N)cc(C(F)(F)F)c1 [A9, 4-(Tert-butyl)-N-(3-(3-cyanopropoxy)-5-(trifluoromethyl)phenyl)-2,6-dimethylbenzenesulfonamide] | 1.05 | 0.78 | 
Cc1cc(C(C)(C)C)cc(C)c1S(=O)(=O)Nc1cc(OCCCCN)cc(C(F)(F)F)c1 [A10, N-(3-(4-Aminobutoxy)-5-(trifluoromethyl)phenyl)-4-(tert-butyl)-2,6-dimethylbenzenesulfonamide] | 0.69 |  | 
CC(C)c1cc(C(C)C)c(S(=O)(=O)Nc2cc(OCCCCN)cc(C(F)(F)F)c2)c(C(C)C)c1 [A11, N-(3-(4-Aminobutoxy)-5-(trifluoromethyl)phenyl)-2,4,6-triisopropylbenzenesulfonamide] | 0.85 |  | 
Cc1cc(C(C)(C)C)cc(C)c1S(=O)(=O)Nc1cc(OCCN(C)C)cc(C(F)(F)F)c1 [A12, 4-(Tert-butyl)-N-(3-(2-(dimethylamino)ethoxy)-5-(trifluoromethyl)phenyl)-2,6-dimethylbenzenesulfonamide] | 0.37 |  | 
Cc1cc(C(C)(C)C)cc(C)c1S(=O)(=O)Nc1cc(CCCN(C)C)cc(C(F)(F)F)c1 [A13, 4-(Tert-butyl)-N-(3-(3-(dimethylamino)propyl)-5-(trifluoromethyl)phenyl)-2,6-dimethylbenzenesulfonamide] | 0.29 |  | 
Cc1cc(C(C)(C)C)cc(C)c1S(=O)(=O)Nc1cc(CCCN2CCOCC2)cc(C(F)(F)F)c1 [A14, 4-(Tert-butyl)-2,6-dimethyl-N-(3-(3-morpholinopropyl)-5-(trifluoromethyl)-phenyl)benzenesulfonamide] | 0.53 |  | 
Cc1cc(C(C)(C)C)cc(C)c1S(=O)(=O)Nc1cc(C2CCN(C)CC2)cc(C(F)(F)F)c1 [A15, 4-(Tert-butyl)-2,6-dimethyl-N-(3-(1-methylpiperidin-4-yl)-5-(trifluoromethyl)-phenyl)benzenesulfonamide] | 0.31 |  | 
Cc1cc(C(C)(C)C)cc(C)c1S(=O)(=O)Nc1cc(Br)cc(C(F)(F)F)c1 [A16, N-(3-Bromo-5-(trifluoromethyl)phenyl)-4-(tert-butyl)-2,6-dimethylbenzenesulfonamide] | 0.35 |  | 
COc1cc(NS(=O)(=O)c2c(C)cc(C(C)(C)C)cc2C)cc(C(F)(F)F)c1 [A17, 4-(Tert-butyl)-N-(3-methoxy-5-(trifluoromethyl)phenyl)-2,6-dimethylbenzenesulfonamide] | 0.46 |  | 
Cc1cc(C(C)(C)C)cc(C)c1S(=O)(=O)Nc1cc(O)cc(C(F)(F)F)c1 [A18, 4-(Tert-butyl)-N-(3-hydroxy-5-(trifluoromethyl)phenyl)-2,6-dimethylbenzenesulfonamide] | 0.57 | 0.28 | Relative α-SMA [1]: 1.26; Relative α-SMA [2]: 0.86; Relative α-SMA [3]: 0.06
COc1cc(NS(=O)(=O)c2c(C(C)C)cc(C(C)C)cc2C(C)C)c(C)c(C(F)(F)F)c1 [A19, 2,4,6-Triisopropyl-N-(5-methoxy-2-methyl-3-(trifluoromethyl)phenyl)-benzenesulfonamide] | 0.56 |  | 
Cc1c(NS(=O)(=O)c2c(C(C)C)cc(C(C)C)cc2C(C)C)cc(O)cc1C(F)(F)F [A20, N-(5-Hydroxy-2-methyl-3-(trifluoromethyl)phenyl)-2,4,6-triisopropylbenzenesulfonamide] | 0.27 |  | 
Cc1c(Br)cc(C(F)(F)F)cc1NS(=O)(=O)c1c(C(C)C)cc(C(C)C)cc1C(C)C [A21, N-(3-Bromo-2-methyl-5-(trifluoromethyl)phenyl)-2,4,6-triisopropylbenzenesulfonamide] | 0.45 |  | 
Cc1cc(C(C)(C)C)cc(C)c1S(=O)(=O)Nc1cc(C2CCNCC2)cc(C(F)(F)F)c1 [A22, 4-(Tert-butyl)-2,6-dimethyl-N-(3-(piperidin-4-yl)-5-(trifluoromethyl)phenyl)-benzenesulfonamide] | 0.21 | 0.12 | 
Cc1c(NS(=O)(=O)c2c(C(C)C)cc(C(C)C)cc2C(C)C)cc(C(F)(F)F)cc1C(F)(F)F [B4, N-(2-methyl-3,5-bis(trifluoromethyl)phenyl)-2,4,6-triisopropyl-benzene-sulfonamide] |  |  | Relative α-SMA (single agent 2 μM, normalized to tubulin, TGF-β alone = 1): 0.95; Relative α-SMA [1]: 0.69; Relative α-SMA [2]: 0.15
Cc1cc(C(C)(C)C)cc(C)c1S(=O)(=O)Nc1cc(C(F)(F)F)cc(C(F)(F)F)c1 [B5, N-(3,5-bis(trifluoromethyl)phenyl)-4-(tert-butyl)-2,6-dimethylbenzene-sulfonamide] |  |  | Relative α-SMA [1]: 0.91; Relative α-SMA [2]: 0.75; Relative α-SMA [3]: 0.24
COC(=O)c1ccc2c(c1)NC(=O)/C2=C(\Nc1ccc(N(C)C(=O)CN2CCN(C)CC2)cc1)c1ccccc1 [N, nintedanib, reference compound] |  |  | Relative α-SMA [1]: 0.82 and 0.92 and 0.97
Cc1ccc(=O)n(-c2ccccc2)c1 [P, pirfenidone, reference compound] |  |  | Relative α-SMA (single agent 200 μM, TGF-β alone = 1): 1.29 and 1.02

Reference: patent US20230201144A1, “BIARYLSULFONAMIDES AND PHARMACEUTICAL COMPOSITIONS THEREOF, AND THEIR USE FOR TREATING FIBROTIC LUNG DISEASE” (NovoMedix, LLC, priority 2020, published 2023)
